This is an account of results in US9650389B2, “8-oxoprotoberberine derivative or pharmaceutically acceptable salt thereof, preparation method therefor and pharmaceutical composition for preventing or treating diseases associated with activity of NFAT5, containing same as active ingredient” (Korea Research Institute of Chemical Technology, priority 2013, dated 2017).

As usually defined, the GI50 is the concentration at which growth is held to half of that of the control. High values mean lower sensitivity of the cells, low ones greater sensitivity of the cells. The inhibition is the relative decrease from the control value, in per cent.

The structures appear in SMILES notation.

Data set [1] can be described thus: Cytotoxicity test (WST-8), VERO. It counts as cell-based. The conditions noted are these: African green monkey, VERO kidney cells. The protocol: (§1) To investigate the cytotoxicity of the derivative of the present invention, 5 kinds of cell lines (VERO: African green monkey kidney cell line, HFL-1: human embryonic lung cell line, L929: NCTC clone 929, mouse fibroblast cell line, NIH 3T3: mouse embryonic fibroblast cell line, and CHO-K1: Chinese hamster ovary cell line) were distributed in a 96-well plate at the density of 1×10^4 cells/well, which were treated with the compound of the present invention for 24 hours. The water-soluble tetrazolium salt WST-8 was added thereto. The orange colored formazan dye degraded by dehydrogenase in the live cells was read, followed by nonlinear regression to determine 50% growth inhibition concentration.
(Tetrazolium dyes change colour on reduction, which living cells bring about.)

Data set [2] in a line: Metabolic stability in rat liver microsomes. It counts as in vitro ADME. The conditions noted are these: rat liver microsome fractions, 30 minutes. Here is the method:
(§2) Particularly, each compound was added to rat and human liver microsome fractions, followed by culture for 30 minutes. Each compound was administered via intravenous injection (iv) and oral-administration (po) to rat at the concentration of 5 mg/kg, followed by making pharmacokinetic profiles.

The nature of data set [3]: Metabolic stability in human liver microsomes. It counts as in vitro ADME. The settings on record: human liver microsome fractions, 30 minutes. Here is the method: as §2
The test system of a further data set is NFATc. The data set is described as follows: NFAT (NFATc) transcriptional activity, THP1-XBlue-MD2-CD14 cells, SEAP. It counts as cell-based. The conditions noted are these: LPS 1 μg/ml, 24 hours, FIG. 2B. The protocol:
To evaluate the transcriptional activity of NFAT, THP1-XBlue-MD2-CD14 cells were cultured in 10% FBS-RPMI (supplemented with 200 μg/ml of Zeocin and 250 μg/ml of G418). First, the cells were distributed in a 96-well plate at the density of 2×10^4 cells/well, followed by culture. 1 μg/ml of LPS and the compound of the invention were added thereto, followed by culture for 24 hours. 20 μl of the supernatant was added with 180 μl of secreted embryonic alkaline phosphatase (SEAP) detection medium, followed by culture for 2 hours. Then, OD655 was measured.

Data set [4] can be described thus: Cytotoxicity test (WST-8), NIH 3T3. It counts as cell-based. The settings on record: mouse, NIH 3T3 embryonic fibroblast cells; NIN3T3, 24 hours. The protocol:
as §1

Another data set deals with T1, NFAT5 (Mus musculus, UniProt Q9WV30).
T1 construct: endogenous in cells; host or cells: RAW264.7
T1 sequence (Q9WV30 whole entry): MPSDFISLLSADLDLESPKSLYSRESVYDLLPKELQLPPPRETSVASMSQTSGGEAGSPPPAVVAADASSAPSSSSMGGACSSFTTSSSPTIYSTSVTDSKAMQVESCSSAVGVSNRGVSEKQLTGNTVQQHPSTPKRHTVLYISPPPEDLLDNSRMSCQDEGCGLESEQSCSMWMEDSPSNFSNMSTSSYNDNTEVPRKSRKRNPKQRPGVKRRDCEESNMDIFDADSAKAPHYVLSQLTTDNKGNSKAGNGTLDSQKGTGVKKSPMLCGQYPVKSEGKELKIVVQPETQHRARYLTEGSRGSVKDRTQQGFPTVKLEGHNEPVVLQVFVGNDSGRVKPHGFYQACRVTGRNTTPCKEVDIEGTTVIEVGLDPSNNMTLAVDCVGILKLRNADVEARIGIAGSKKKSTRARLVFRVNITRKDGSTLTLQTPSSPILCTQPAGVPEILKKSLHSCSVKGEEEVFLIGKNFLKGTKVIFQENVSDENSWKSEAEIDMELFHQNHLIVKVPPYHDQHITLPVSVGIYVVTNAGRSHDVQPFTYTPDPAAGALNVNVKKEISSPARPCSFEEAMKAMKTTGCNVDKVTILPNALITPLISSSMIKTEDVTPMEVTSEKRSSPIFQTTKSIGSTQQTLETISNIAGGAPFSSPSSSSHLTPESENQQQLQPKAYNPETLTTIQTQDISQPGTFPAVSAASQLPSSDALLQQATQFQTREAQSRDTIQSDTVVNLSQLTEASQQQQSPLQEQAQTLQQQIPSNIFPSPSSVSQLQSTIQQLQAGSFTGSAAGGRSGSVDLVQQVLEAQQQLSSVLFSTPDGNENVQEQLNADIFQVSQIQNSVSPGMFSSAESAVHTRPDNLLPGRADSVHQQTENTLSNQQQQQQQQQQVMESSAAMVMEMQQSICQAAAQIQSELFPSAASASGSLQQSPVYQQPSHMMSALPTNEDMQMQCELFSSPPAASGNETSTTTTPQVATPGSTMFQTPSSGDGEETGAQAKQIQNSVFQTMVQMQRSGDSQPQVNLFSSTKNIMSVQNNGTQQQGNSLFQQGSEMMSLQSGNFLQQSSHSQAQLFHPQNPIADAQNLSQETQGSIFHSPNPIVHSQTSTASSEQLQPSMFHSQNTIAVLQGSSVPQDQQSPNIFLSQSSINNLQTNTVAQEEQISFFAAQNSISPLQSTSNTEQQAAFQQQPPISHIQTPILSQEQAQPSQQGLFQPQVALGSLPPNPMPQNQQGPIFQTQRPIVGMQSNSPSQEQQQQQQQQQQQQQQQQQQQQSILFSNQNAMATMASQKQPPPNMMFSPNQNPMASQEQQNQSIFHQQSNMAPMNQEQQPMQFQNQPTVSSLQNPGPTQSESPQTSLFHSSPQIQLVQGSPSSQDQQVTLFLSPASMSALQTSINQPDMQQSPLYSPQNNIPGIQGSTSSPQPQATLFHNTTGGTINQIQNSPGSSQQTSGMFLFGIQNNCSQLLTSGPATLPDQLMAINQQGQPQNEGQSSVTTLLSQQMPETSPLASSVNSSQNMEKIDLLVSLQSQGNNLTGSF
Nature of the data set: NFAT5 reporter screening (GFP, HCS) in LPS-treated Raw264.7 cells. It counts as cell-based. The settings on record: for Inhibition rate of NFAT5 transcription (%): Raw264.7 reporter, LPS 1 μg/ml, 48 hours; for inhibiting NFAT5 activity (in words): Table 3 and FIG. 1. Here is the method:
To investigate whether or not the derivative of the present invention could inhibit the transcriptional activity of NFAT5, NFAT5 reporter screening was performed. A plasmid vector was constructed by eliminating CMV promoter sequence from the backbone and inserting NFAT5 binding site sequence ([…]) instead. Raw264.7 cells transfected with the vector were cultured in 10% FBS-PRMI (supplemented with 500 μg/ml G418). The cells were distributed in a 96-well plate at the density of 3×10^3 cells/well, followed by further culture for one more day. The cells were treated with LPS at the concentration of 1 μg/ml for 48 hours. Then, the cells were fixed and the expression level of GFP was measured by HCS fluorescence image (Thermo, ArrayScan^VTI).

A short description of data set [5]: Cytotoxicity test (WST-8), HFL-1. It counts as cell-based. The conditions noted are these: human, HFL-1 embryonic lung cells; HFL-1, 24 hours. The protocol: as §1
Data set [6] is described as follows: Cytotoxicity test (WST-8), CHO-K1. It counts as cell-based. The conditions noted are these: Chinese hamster, CHO-K1 ovary cells; CHO-K1, 24 hours. The protocol: as §1
The subject of another data set is iNOS. Nature of the data set: Inhibition of LPS-induced iNOS induction in Raw264.7 cells (Griess reagent). The conditions noted are these: Mus musculus, Raw264.7, LPS 100 ng/ml, 24 hours, read-out: Inhibition rate of iNOS induction (%). It counts as cell-based. Here is the method: To investigate whether or not the derivative of the present invention could inhibit iNOS inducement, Raw264.7 cells (mouse macrophages) were distributed in a 384-well plate at the density of 3×10^4 cells/well. The cells were treated with LPS at the concentration of 100 ng/ml, followed by culture at 37° C. for 24 hours. The concentration of […] increased in the medium was measured by using Griess reagent. The inhibition rate was calculated by mathematical formula based on the detected signals. The results are shown in Table 2. % inhibition=(mean value of sample−mean value of negative control)/(mean value of positive control −mean value of negative control)×100 [Mathematical Formula 1]
On the technique in general: Nitrite, measured by Griess reagent, commonly stands in for NO production.

Data set [7] can be described thus: Cytotoxicity test (WST-8), L929. The format is cell-based. The conditions noted are these: mouse, L929 fibroblast cells (NCTC clone 929); L929, 24 hours. Here is the method: as §1

For the compound `COc1ccc2c(Cc3c(F)cccc3F)c3n(c(=O)c2c1OC)CCc1cc2c(cc1-3)OCO2` [Example 3, 13-(2,6-difluorobenzyl)-9,10-dimethoxy-5H-[1,3]dioxolo[4,5-g]isoquinolino[3,2-a]isoquinoline-8(6H)-one], the 50% growth inhibitory concentration (GI50) at 24 h in data set [1] came to 84.9 µM; in data set [4], 10.2 µM; in data set [5] it was 32.8 µM; in data set [6], 16.7 µM; in [7], 47.7 µM. Further, the “remaining compound, Rat (%)” value in [2] is on record as 18.5 ± 5.2%. Besides, the “remaining compound, Human (%)” value in data set [3] is recorded as 63.7 ± 2.4%. Also, the “inhibition of NFAT promoter / transcriptional activity (in words)” value in the data set on NFATc was “slightly”. The “Inhibition rate of NFAT5 transcription (%)” value on NFAT5 (1 μM) was 24.6%; at NFAT5 (10 μM), 108.8%. Further, the “inhibiting NFAT5 activity (in words)” value against NFAT5 is reported as “remarkably excellent in inhibiting NFAT5 activity”. In the data set with iNOS, the inhibition at 1 µM is 74.1%. The inhibition at 10 µM in the data set with iNOS is 113%.
Take `O=C1CC2(CCCC2)CC(=O)N1CCCCN1CCN(c2ncccn2)CC1` [buspirione, reference compound]: the “remaining compound, Rat (%)” value in data set [2] turned out to be 0.82 ± 0.16%. In [3], the “remaining compound, Human (%)” value was determined as 3.88 ± 0.24%.
As to `COc1ccc2c(Cc3ccccn3)c3n(c(=O)c2c1OC)CCc1cc2c(cc1-3)OCO2` [Example 6, 9,10-dimethoxy-13-(pyridine-2-ylmethyl)-5,6-dihydro-[1,3]dioxolo[4,5-g]isoquinolino [3,2-a]isoquinoline-8(6H)-one], the GI50 at 24 h in [1], in data set [4], in data set [5], in data set [6] and in data set [7] was > 100 µM throughout. Also, the entries for the “Inhibition rate of NFAT5 transcription (%)” value on NFAT5 (1 μM) and on NFAT5 (10 μM) were 9.9% and 67.9%, respectively. Also, the “inhibiting NFAT5 activity (in words)” value against NFAT5 is recorded as “remarkably excellent in inhibiting NFAT5 activity”. Moreover, the inhibition at 1 µM in the data set with iNOS was found to be 7.2%. Also, the inhibition at 10 µM in the data set with iNOS was 115%.
